Test results from patent US9101640B2, “Use of Danshensu, Notoginsenoside R1 or their combination in preparation of medicaments for preventing and treating diseases caused by microcirculation disorder” (Tasly Pharmaceutical Group Co., Ltd., priority 2009, dated 2015).
“Also recorded” adds a separate entry of the source.

Tested on: mast cells in the mesenteric interstitial substance
Assay: Percentage of mast cells degranulation after I/R (toluidine blue)
Type: in vivo
Conditions: 60 min of reperfusion, rat
[1] = post-administration, 5 mg/kg/h continuous i.v. drip from 20 min after ischemia (DLA: 10 min after I/R)
[2] = pre-administration, 5 mg/kg/h continuous i.v. drip from 20 min before ischemia

SMILES	inhibition of the increase in the percentage of mast cells degranulation caused by I/R [1]	inhibition of the increase in the percentage of mast cells degranulation caused by I/R [2]
CC(C)=CCC[C@](C)(O[C@@H]1O[C@H](CO)[C@@H](O)[C@H](O)[C@H]1O)[C@H]1CC[C@]2(C)[C@@H]1[C@H](O)C[C@@H]1[C@@]3(C)CC[C@H](O)C(C)(C)[C@@H]3[C@@H](O[C@@H]3O[C@H](CO)[C@@H](O)[C@H](O)[C@H]3O[C@@H]3OC[C@@H](O)[C@H](O)[C@H]3O)C[C@]12C [R1, Notoginsenoside R1]	can significantly inhibit	can significantly inhibit
O=C(O)C(O)Cc1ccc(O)c(O)c1 (stereo not shown) [DLA, 3,4-dihydroxyphenyl lactic acid]	had no significant inhibitory effects; also recorded: without the significant inhibition	can significantly inhibit
